# Source: patent US9533985B2, “Sulfonamide derivative and medicinal use thereof” (EA Pharma Co., Ltd., priority 2012, dated 2017)
# Target: α4β7 integrin (Homo sapiens (Human), UniProt P13612+P26010)
# Experiment: MAdCAM-1/α4β7 integrin binding inhibitory activity evaluation test in the presence of serum (2)
# Format: cell-based
# Details: RPMI-8866 cells binding to mouse MAdCAM-1/Fc, same manner as Test (3), read-out: α4β7 Rank of activity with serum added
# Method: The ability of test substances to inhibit the binding of a human B cell line, RPMI-8866, which is known to express α4β7 integrin, to MAdCAM-1 was measured.
# To 96-well microtiter plates, recombinant mouse MAdCAM-1/Fc (R&D systems) solution (1 μg/mL) diluted with buffer A (carbonate buffer, pH 9.6) was added at 50 μL/well, followed by incubation at 4° C. overnight. After washing once with PBS, Block Ace (Snow Brand Milk Products Company, Limited) was added at 150 μL/well, followed by incubation at room temperature for 2 hours. After removal, washing was conducted once with PBS.
# 100 μL of each test substance diluted with a binding buffer (DMEM containing 40 mM HEPES, 0.2% BSA, and 4 mM MnCl2) to various concentrations and 100 μL of RPMI-8866 cells (2×10^6 cell/mL) were added to plates coated with MAdCAM-1/Fc (5×10^5 cells/well) with human serum being contained at a final concentration of 50%, followed by incubation at 30° C. for 15 minutes to 60 minutes. After the cells were bound to each well, unbound cells were removed by washing with PBS. To the plates, buffer C (PBS containing 1.5% Triton X-100) was added at 50 μL/well to lyse the bound RPMI-8866 cells. To 30 μL of the cell lysate, 30 μL of Substrate Buffer (Promega, CytoTox 96 Non-Radioactive Cytotoxicity Assay) was added, and the reaction was allowed to proceed at room temperature in a dark place for 30 minutes. To each well, 30 μL of Stop Solution (Promega, CytoTox 96 Non-Radioactive Cytotoxicity Assay) was added, and the absorbance at 490 nm was measured by using a plate reader. Here, by the obtained absorbance, the activity of the lactate dehydrogenase (LDH) dissolved into the supernatant of each well was detected. In other words, the absorbance was proportional to the number of the RPMI-8866 cells bound to MAdCAM-1 and remaining on the plate. The test was duplicated. The binding ratios of the cells at various concentrations were determined, with the absorbance of a well containing no test substance taken as 100%. Then, the concentration IC50, at which 50% binding inhibition was achieved, was calculated.
# The MAdCAM-1/α4β7 integrin binding inhibitory activity in the presence of serum was measured in the same manner as in Test (3) described above. […] The VCAM-1/α4β1 integrin binding inhibitory activity evaluation test and the MAdCAM-1/α4β7 integrin binding inhibitory activity evaluation test were carried out according to the methods described in Tests (1) and (2) described above.
# Chain of α4β7 integrin (P13612 34-1032): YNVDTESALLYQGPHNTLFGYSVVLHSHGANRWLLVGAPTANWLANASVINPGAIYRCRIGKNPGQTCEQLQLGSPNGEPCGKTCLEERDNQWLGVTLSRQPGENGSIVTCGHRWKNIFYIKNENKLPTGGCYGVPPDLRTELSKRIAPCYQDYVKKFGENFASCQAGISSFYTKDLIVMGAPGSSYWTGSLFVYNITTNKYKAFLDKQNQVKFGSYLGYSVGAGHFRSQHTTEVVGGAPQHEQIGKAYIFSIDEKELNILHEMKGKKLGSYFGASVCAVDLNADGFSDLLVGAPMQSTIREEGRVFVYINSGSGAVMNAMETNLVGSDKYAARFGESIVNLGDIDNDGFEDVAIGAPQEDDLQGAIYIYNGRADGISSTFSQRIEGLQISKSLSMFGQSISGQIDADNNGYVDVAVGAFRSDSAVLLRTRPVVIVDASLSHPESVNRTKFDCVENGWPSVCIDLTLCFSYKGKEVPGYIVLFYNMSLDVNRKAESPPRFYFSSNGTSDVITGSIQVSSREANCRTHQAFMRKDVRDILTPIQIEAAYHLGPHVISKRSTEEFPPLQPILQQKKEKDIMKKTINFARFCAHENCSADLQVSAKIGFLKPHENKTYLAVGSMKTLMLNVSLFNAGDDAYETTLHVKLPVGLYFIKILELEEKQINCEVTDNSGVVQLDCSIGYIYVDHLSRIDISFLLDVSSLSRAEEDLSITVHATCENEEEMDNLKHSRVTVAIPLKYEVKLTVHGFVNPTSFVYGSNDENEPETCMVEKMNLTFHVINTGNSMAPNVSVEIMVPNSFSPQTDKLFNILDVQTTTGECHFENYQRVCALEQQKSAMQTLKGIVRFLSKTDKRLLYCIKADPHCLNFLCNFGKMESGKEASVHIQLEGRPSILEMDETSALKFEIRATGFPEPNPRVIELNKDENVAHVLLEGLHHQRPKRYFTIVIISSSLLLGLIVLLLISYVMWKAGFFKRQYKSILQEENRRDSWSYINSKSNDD
# Chain of α4β7 integrin (P26010 20-798): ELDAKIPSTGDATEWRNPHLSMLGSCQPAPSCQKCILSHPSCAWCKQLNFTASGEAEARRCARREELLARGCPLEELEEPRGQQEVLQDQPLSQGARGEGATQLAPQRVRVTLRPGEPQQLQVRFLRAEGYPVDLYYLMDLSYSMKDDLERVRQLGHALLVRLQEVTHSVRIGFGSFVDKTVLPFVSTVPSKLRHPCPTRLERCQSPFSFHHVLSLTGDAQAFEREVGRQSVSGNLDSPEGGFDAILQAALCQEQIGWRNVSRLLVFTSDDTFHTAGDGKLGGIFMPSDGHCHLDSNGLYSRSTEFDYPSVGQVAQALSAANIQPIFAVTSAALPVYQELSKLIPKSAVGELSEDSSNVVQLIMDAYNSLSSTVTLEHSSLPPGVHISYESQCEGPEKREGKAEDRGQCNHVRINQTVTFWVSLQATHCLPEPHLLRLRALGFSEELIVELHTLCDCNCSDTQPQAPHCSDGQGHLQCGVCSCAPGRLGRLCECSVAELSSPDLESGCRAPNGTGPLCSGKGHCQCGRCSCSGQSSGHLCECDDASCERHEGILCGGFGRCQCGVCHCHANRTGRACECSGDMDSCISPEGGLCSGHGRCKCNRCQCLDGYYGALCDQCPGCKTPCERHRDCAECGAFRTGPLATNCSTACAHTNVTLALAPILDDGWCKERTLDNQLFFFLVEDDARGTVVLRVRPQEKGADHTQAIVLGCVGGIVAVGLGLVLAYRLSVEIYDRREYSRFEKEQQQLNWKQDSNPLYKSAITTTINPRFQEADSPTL
row,IC50 [nM],Compound
1,10 to 50,"CCOc1ccccc1S(=O)(=O)Nc1cc(F)c(C(=O)N[C@@H](Cc2ccc(-n3c(=O)c4ccncc4n(C)c3=O)cc2)C(=O)O)c(F)c1 [Example 214, N-(4-{[(2-Ethoxyphenyl)sulfonyl]amino}-2,6-difluorobenzoyl)-4-(1-methyl-2,4-dioxo-1,4-dihydropyrido[3,4-d]pyrimidin-3(2H)-yl)-L-phenylalanine]"
2,10 to 50,"Cn1c(=O)n(-c2ccc(C[C@H](NC(=O)c3c(F)cc(NS(=O)(=O)c4ccccc4O)cc3F)C(=O)O)nc2)c(=O)c2ccncc21 [Example 185, N-(2,6-Difluoro-4-{[(2-hydroxyphenyl)sulfonyl]amino}benzoyl)-3-[5-(1-methyl-2,4-dioxo-1,4-dihydropyrido[3,4-d]pyrimidin-3(2H)-yl)pyridin-2-yl]-L-alanine]"
3,50 to 200,"Cn1c(=O)n(-c2ccc(C[C@H](NC(=O)c3cc(F)c(NS(=O)(=O)c4ccc(C(=O)C5CC5)cc4)cc3F)C(=O)O)nc2)c(=O)c2ccncc21 [Example 223, N-[4-({[4-(Cyclopropylcarbonyl)phenyl]sulfonyl}amino)-2,5-difluorobenzoyl]-3-[5-(1-methyl-2,4-dioxo-1,4-dihydropyrido[3,4-d]pyrimidin-3(2H)-yl)pyridin-2-yl]-L-alanine]"
4,10 to 50,"Cc1ccc(-c2ccc(S(=O)(=O)Nc3cc(F)c(C(=O)N[C@@H](Cc4ccc(-n5c(=O)c6ccncc6n(C)c5=O)cc4)C(=O)O)c(F)c3)nc2)cn1 [Example 151, N-(2,6-Difluoro-4-{[(6′-methyl-3,3′-bipyridin-6-yl)sulfonyl]amino}benzoyl)-4-(1-methyl-2,4-dioxo-1,4-dihydropyrido[3,4-d]pyrimidin-3(2H)-yl)-L-phenylalanine]"
5,10 to 50,"CCc1ncc(-c2ccc(S(=O)(=O)Nc3cc(F)c(C(=O)N[C@@H](Cc4ccc(-n5c(=O)c6ccncc6n(C)c5=O)cc4)C(=O)O)cc3F)cc2)cn1 [Example 237, N-[4-({[4-(2-Ethylpyrimidin-5-yl)phenyl]sulfonyl}amino)-2,5-difluorobenzoyl]-4-(1-methyl-2,4-dioxo-1,4-dihydropyrido[3,4-d]pyrimidin-3(2H)-yl)-L-phenylalanine]"
6,≤ 10,"Cn1c(=O)n(-c2ccc(C[C@H](NC(=O)c3ccc(NS(=O)(=O)c4cc[n+]([O-])cc4)cc3F)C(=O)O)cc2)c(=O)c2cc[n+]([O-])cc21 [Example 179, (2S)-2-[[2-Fluoro-4-[(1-oxidopyridin-1-ium-4-yl)sulfonylamino]benzoyl]amino]-3-[4-(1-methyl-7-oxido-2,4-dioxo-pyrido[3,4-d]pyrimidin-7-ium-3-yl)phenyl]propanoic Acid]"
7,10 to 50,"Cn1c(=O)n(-c2ccc(C[C@H](NC(=O)c3cc(F)c(NS(=O)(=O)c4cccs4)cc3F)C(=O)O)cc2)c(=O)c2ccncc21 [Example 213, N-{2,5-Difluoro-4-[(2-thienylsulfonyl)amino]benzoyl}-4-(1-methyl-2,4-dioxo-1,4-dihydropyrido[3,4-d]pyrimidin-3(2H)-yl)-L-phenylalanine]"
8,> 200,"Cn1c(=O)n(-c2ccc(C[C@H](NC(=O)c3cc(F)c(NS(=O)(=O)c4ccc(-c5cc(F)cc(F)c5)cc4)cc3F)C(=O)O)nc2)c(=O)c2ccncc21 [Example 235, N-(4-{[(3′,5′-Difluorobiphenyl-4-yl)sulfonyl]amino}-2,5-difluorobenzoyl)-3-[5-(1-methyl-2,4-dioxo-1,4-dihydropyrido[3,4-d]pyrimidin-3(2H)-yl)pyridin-2-yl]-L-alanine]"

# The next lines start with the compound.
row,Compound,IC50 [nM]
1,"Cn1ccc(=O)n(-c2ccc(C[C@H](NC(=O)c3cc(F)c(NS(=O)(=O)c4ccc(-c5cncnc5)cc4)cc3F)C(=O)O)cc2)c1=O [Example 216, N-(2,5-Difluoro-4-{[(4-pyrimidin-5-ylphenyl)sulfonyl]amino}benzoyl)-4-(3-methyl-2,6-dioxo-3,6-dihydropyrimidin-1(2H)-yl)-L-phenylalanine]",10 to 50
2,"Cn1c(=O)n(-c2ccc(C[C@H](NC(=O)c3cc(F)c(NS(=O)(=O)c4ccccn4)cc3F)C(=O)O)nc2)c(=O)c2ccncc21 [Example 138, N-{2,5-Difluoro-4-[(pyridin-2-yl-sulfonyl)amino]benzoyl}-3-[5-(1-methyl-2,4-dioxo-1,4-dihydropyrido[3,4-d]pyrimidin-3(2H)-yl)pyridin-2-yl]-L-alanine]",50 to 200
3,"CCOc1ccccc1S(=O)(=O)Nc1cc(F)c(C(=O)N[C@@H](Cc2ccc(-n3c(=O)c4ccncc4n(C)c3=O)cn2)C(=O)O)c(F)c1 [Example 146, N-(4-{[(2-Ethoxyphenyl)sulfonyl]amino}-2,6-difluorobenzoyl)-3-[5-(1-methyl-2,4-dioxo-1,4-dihydropyrido[3,4-d]pyrimidin-3(2H)-yl)pyridin-2-yl]-L-alanine]",10 to 50
4,"Cn1cnc2c1c(=O)n(-c1ccc(C[C@H](NC(=O)c3c(F)cc(NS(=O)(=O)c4ccc(-c5ncccn5)cn4)cc3F)C(=O)O)cc1)c(=O)n2C [Example 153, N-(2,6-Difluoro-4-{[(5-pyrimidin-2-yl-pyridin-2-yl)sulfonyl]amino}benzoyl)-4-(3,7-dimethyl-2,6-dioxo-2,3,6,7-tetrahydro-1H-purin-1-yl)-L-phenylalanine]",≤ 10
5,"Cn1ccc(=O)n(-c2ccc(C[C@H](NC(=O)c3c(F)cc(NS(=O)(=O)c4ccncc4)cc3F)C(=O)O)cc2)c1=O [Example 171, N-{2,6-Difluoro-4-[(pyridin-4-yl-sulfonyl)amino]benzoyl}-4-(3-methyl-2,6-dioxo-3,6-dihydropyrimidin-1 (2H)-yl)-L-phenylalanine]",10 to 50
6,"Cn1c(=O)n(-c2ccc(C[C@H](NC(=O)c3c(F)cc(NS(=O)(=O)c4ccc(-c5ccco5)cc4)cc3F)C(=O)O)nc2)c(=O)c2ccncc21 [Example 148, N-[2,6-Difluoro-4-({[4-(2-furyl)phenyl]sulfonyl}amino)benzoyl]-3-[5-(1-methyl-2,4-dioxo-1,4-dihydropyrido[3,4-d]pyrimidin-3(2H)-yl)pyridin-2-yl]-L-alanine]",10 to 50
7,"Cn1ccc(=O)n(-c2ccc(C[C@H](NC(=O)c3c(F)cc(NS(=O)(=O)c4ccc(C(=O)C5CC5)cc4)cc3F)C(=O)O)cc2)c1=O [Example 174, N-[4-({[4-(Cyclopropylcarbonyl)phenyl]sulfonyl}amino)-2,6-difluorobenzoyl]-4-(3-methyl-2,6-dioxo-3,6-dihydropyrimidin-1(2H)-yl)-L-phenylalanine]",10 to 50
8,"Cn1c(=O)n(-c2ccc(C[C@H](NC(=O)c3cc(F)c(NS(=O)(=O)c4ccco4)cc3F)C(=O)O)cc2)c(=O)c2ccncc21 [Example 149, N-{2,5-Difluoro-4-[(2-furylsulfonyl)amino]benzoyl}-4-(1-methyl-2,4-dioxo-1,4-dihydropyrido[3,4-d]pyrimidin-3(2H)-yl)-L-phenylalanine]",10 to 50
9,"Cn1ccc(=O)n(-c2ccc(C[C@H](NC(=O)c3c(F)cc(NS(=O)(=O)c4ccc(C(=O)NC5CCCC5)cc4)cc3F)C(=O)O)cc2)c1=O [Example 165, N-{4-[({4-[(Cyclopentylamino)carbonyl]phenyl}sulfonyl)amino]-2,6-difluorobenzoyl}-4-(3-methyl-2,6-dioxo-3,6-dihydropyrimidin-1(2H)-yl)-L-phenylalanine]",≤ 10
10,"Cn1c(=O)n(-c2ccc(C[C@H](NC(=O)c3c(F)cc(NS(=O)(=O)c4ccc(-c5ccsc5)cc4)cc3F)C(=O)O)nc2)c(=O)c2ccncc21 [Example 178, N-[2,6-Difluoro-4-({[4-(3-thienyl)phenyl]sulfonyl}amino)benzoyl]-3-[5-(1-methyl-2,4-dioxo-1,4-dihydropyrido[3,4-d]pyrimidin-3(2H)-yl)pyridin-2-yl]-L-alanine]",10 to 50
11,"Cn1ccc(=O)n(-c2ccc(C[C@H](NC(=O)c3c(F)cc(NS(=O)(=O)c4ccc(-c5ncccn5)cn4)cc3F)C(=O)O)nc2)c1=O [Example 159, N-(2,6-Difluoro-4-{[(5-pyrimidin-2-yl-pyridin-2-yl)sulfonyl]amino}benzoyl)-3-[5-(3-methyl-2,6-dioxo-3,6-dihydropyrimidin-1(2H)-yl)pyridin-2-yl]-L-alanine]",10 to 50
12,"Cc1cn(-c2ccc(S(=O)(=O)Nc3cc(F)c(C(=O)N[C@@H](Cc4ccc(-n5c(=O)c6ccncc6n(C)c5=O)cn4)C(=O)O)cc3F)cc2)nn1 [Example 234, N-[2,5-Difluoro-4-({[4-(4-methyl-1H-1,2,3-triazol-1-yl)phenyl]sulfonyl}amino)benzoyl]-3-[5-(1-methyl-2,4-dioxo-1,4-dihydropyrido[3,4-d]pyrimidin-3(2H)-yl)pyridin-2-yl]-L-alanine]",10 to 50
